molecular target: human MGL from HeLa cells (Homo sapiens (Human), UniProt Q99685); test: MGL in vitro activity assay ([glycerol-1,3-3H]-oleoyl glycerol hydrolysis, activated carbon filtration); type: biochemical; settings: 300 nM [Glycerol-1,3-3H]-oleoyl glycerol, one hour
Outline: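 Endogenous human MGL in HeLa cells/homogenates incubated 1 h with test compounds and 300 nM [glycerol-1,3-3H]-oleoyl glycerol. Released 3H-glycerol passing an activated carbon filter counted as activity; screening at 10 μM compound, top IC50 concentration set empirically.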

Sequence of human MGL from HeLa cells (Q99685 whole entry): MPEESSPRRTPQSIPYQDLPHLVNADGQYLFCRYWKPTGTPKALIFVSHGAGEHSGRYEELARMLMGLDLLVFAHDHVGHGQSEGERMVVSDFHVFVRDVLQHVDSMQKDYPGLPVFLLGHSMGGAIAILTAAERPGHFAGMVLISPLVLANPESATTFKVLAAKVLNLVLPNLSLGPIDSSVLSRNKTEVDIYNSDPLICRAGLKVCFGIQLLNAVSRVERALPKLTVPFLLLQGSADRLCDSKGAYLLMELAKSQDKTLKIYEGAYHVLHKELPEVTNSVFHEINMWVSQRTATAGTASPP

Question: With `Cc1nc(OC2CCC3(CC2)CN(C(=O)[C@H]2C[C@@](C)(O)C2)C3)ccc1Cl` [Example 434, (7-((5-Chloro-6-methylpyridin-2-yl)oxy)-2-azaspiro[3.5]nonan-2-yl)((1s,3s)-3-hydroxy-3-methylcyclobutyl)methanone] as the compound, how does the IC50 read?
Answer: Its IC50 is 25 nM.

Question: For `Cc1ccc(Cl)c(OC2CCC3(CC2)CN(C(=O)[C@H]2C[C@@](C)(O)C2)C3)n1` [Example 435, (7-((3-Chloro-6-methylpyridin-2-yl)oxy)-2-azaspiro[3.5]nonan-2-yl)((1s,3s)-3-hydroxy-3-methylcyclobutyl)methanone], which IC50 is on record?
Answer: The IC50 was 8.4 nM.

Question: With `Cc1cnc(OC2CCC3(CC2)CN(C(=O)[C@H]2C[C@@](C)(O)C2)C3)c(Cl)c1` [Example 436, (7-((3-Chloro-5-methylpyridin-2-yl)oxy)-2-azaspiro[3.5]nonan-2-yl)((1s,3s)-3-hydroxy-3-methylcyclobutyl)methanone] as the compound, how does the IC50 read?
Answer: Its IC50 is 13 nM.

Question: `Cc1cc(Cl)cnc1OC1CCC2(CC1)CN(C(=O)[C@H]1C[C@@](C)(O)C1)C2` [Example 437, (7-((5-Chloro-3-methylpyridin-2-yl)oxy)-2-azaspiro[3.5]nonan-2-yl)((1s,3s)-3-hydroxy-3-methylcyclobutyl)methanoneo] was tested. Which IC50 did it give?
Answer: The IC50 was 3.7 nM.

Question: Which IC50 does the source give for `Cc1nc(OC2CCC3(CC2)CN(C(=O)[C@H]2C[C@@](C)(O)C2)C3)ccc1C(F)F` [Example 438, (7-((5-(Difluoromethyl)-6-methylpyridin-2-yl)oxy)-2-azaspiro[3.5]nonan-2-yl)((1s,3s)-3-hydroxy-3-methylcyclobutyl)methanone] here?
Answer: Its IC50 is 32 nM.

Question: Which IC50 does the source give for `CCc1ccc(OC2CCC3(CC2)CN(C(=O)[C@H]2C[C@@](C)(O)C2)C3)nc1C(F)F` [Example 439, (7-((6-(Difluoromethyl)-5-ethylpyridin-2-yl)oxy)-2-azaspiro[3.5]nonan-2-yl)((1s,3s)-3-hydroxy-3-methylcyclobutyl)methanone] here?
Answer: The IC50 was 1.8 nM.

Question: For `CCc1nc(OC2CCC3(CC2)CN(C(=O)[C@H]2C[C@@](C)(O)C2)C3)ccc1C(F)F` [Example 440, (7-((5-(Difluoromethyl)-6-ethylpyridin-2-yl)oxy)-2-azaspiro[3.5]nonan-2-yl)((1s,3s)-3-hydroxy-3-methylcyclobutyl)methanone], which IC50 is on record?
Answer: The IC50 was 15 nM.

Question: Which IC50 does the source give for `CCc1ccc(C(F)F)c(OC2CCC3(CC2)CN(C(=O)[C@H]2C[C@@](C)(O)C2)C3)n1` [Example 441, (7-((3-(Difluoromethyl)-6-ethylpyridin-2-yl)oxy)-2-azaspiro[3.5]nonan-2-yl)((1s,3s)-3-hydroxy-3-methylcyclobutyl)methanone] here?
Answer: The IC50 was 14 nM.

Question: Which IC50 does the source give for `Cc1cc(OC2CCC3(CC2)CN(C(=O)[C@H]2C[C@@](C)(O)C2)C3)ncc1C(F)(F)F` [Example 442, ((1s,3s)-3-Hydroxy-3-methylcyclobutyl)(7-((4-methyl-5-(trifluoromethyl)pyridin-2-yl)oxy)-2-azaspiro[3.5]nonan-2-yl)methanone] here?
Answer: Its IC50 is 9.6 nM.

Question: With `Cc1ccc(C(F)(F)F)c(OC2CCC3(CC2)CN(C(=O)[C@H]2C[C@@](C)(O)C2)C3)n1` [Example 443, ((1s,3s)-3-Hydroxy-3-methylcyclobutyl)(7-((6-methyl-3-(trifluoromethyl)pyridin-2-yl)oxy)-2-azaspiro[3.5]nonan-2-yl)methanone] as the compound, how does the IC50 read?
Answer: Its IC50 is 17 nM.

Question: With `Cc1cc(C(F)(F)F)cnc1OC1CCC2(CC1)CN(C(=O)[C@H]1C[C@@](C)(O)C1)C2` [Example 446, ((1s,3s)-3-Hydroxy-3-methylcyclobutyl)(7-((3-methyl-5-(trifluoromethyl)pyridin-2-yl)oxy)-2-azaspiro[3.5]nonan-2-yl)methanone] as the compound, how does the IC50 read?
Answer: The IC50 was 0.76 nM.

Question: Which IC50 does the source give for `Cc1cc(C(F)(F)F)cc(OC2CCC3(CC2)CN(C(=O)[C@H]2C[C@@](C)(O)C2)C3)n1` [Example 447, ((1s,3s)-3-Hydroxy-3-methylcyclobutyl)(7-((6-methyl-4-(trifluoromethyl)pyridin-2-yl)oxy)-2-azaspiro[3.5]nonan-2-yl)methanone] here?
Answer: The IC50 was 110 nM.

Question: Which IC50 does the source give for `Cc1nc(OC2CCC3(CC2)CN(C(=O)[C@H]2C[C@@](C)(O)C2)C3)ccc1C(F)(F)F` [Example 448, ((1s,3s)-3-Hydroxy-3-methylcyclobutyl)(7-((6-methyl-5-(trifluoromethyl)pyridin-2-yl)oxy)-2-azaspiro[3.5]nonan-2-yl)methanone] here?
Answer: Its IC50 is 2.4 nM.

Question: For `Cc1ccc(C(F)(F)F)nc1OC1CCC2(CC1)CN(C(=O)[C@H]1C[C@@](C)(O)C1)C2` [Example 449, ((1s,3s)-3-Hydroxy-3-methylcyclobutyl)(7-((3-methyl-6-(trifluoromethyl)pyridin-2-yl)oxy)-2-azaspiro[3.5]nonan-2-yl)methanone], which IC50 is on record?
Answer: Its IC50 is 8.5 nM.

Question: Which IC50 does the source give for `CCc1ccc(OC2CCC3(CC2)CN(C(=O)[C@H]2C[C@@](C)(O)C2)C3)nc1C(F)(F)F` [Example 450, (7-((5-Ethyl-6-(trifluoromethyl)pyridin-2-yl)oxy)-2-azaspiro[3.5]nonan-2-yl)((1s,3s)-3-hydroxy-3-methylcyclobutyl)methanone] here?
Answer: Its IC50 is 2.9 nM.

Question: With `Cc1ccc(OC2CCC3(CC2)CN(C(=O)[C@H]2C[C@@](C)(O)C2)C3)nc1C(F)(F)F` [Example 451, ((1s,3s)-3-Hydroxy-3-methylcyclobutyl)(7-((5-methyl-6-(trifluoromethyl)pyridin-2-yl)oxy)-2-azaspiro[3.5]nonan-2-yl)methanone] as the compound, how does the IC50 read?
Answer: Its IC50 is 8.2 nM.

Question: With `CC[C@]1(O)C[C@@H](C(=O)N2CC3(CCC(Oc4ccc(C)c(C(F)(F)F)n4)CC3)C2)C1` [Example 452, ((1r,3s)-3-Ethyl-3-hydroxycyclobutyl)(7-((5-methyl-6-(trifluoromethyl)pyridin-2-yl)oxy)-2-azaspiro[3.5]nonan-2-yl)methanone] as the compound, how does the IC50 read?
Answer: Its IC50 is 20 nM.

Question: How did the IC50 turn out when `Cc1ccc(OC2CCC3(CC2)CN(C(=O)[C@H]2C[C@](O)(C(F)F)C2)C3)nc1C(F)(F)F` [Example 453, ((1s,3s)-3-(Difluoromethyl)-3-hydroxycyclobutyl)(7-((5-methyl-6-(trifluoromethyl)pyridin-2-yl)oxy)-2-azaspiro[3.5]nonan-2-yl)methanone] was run?
Answer: Its IC50 is 19 nM.

Question: `CCc1ccc(OC2CCC3(CC2)CN(C(=O)[C@H]2C[C@@](C)(O)C2)C3)nc1OC` [Example 454, (7-((5-Ethyl-6-methoxypyridin-2-yl)oxy)-2-azaspiro[3.5]nonan-2-yl)((1s,3s)-3-hydroxy-3-methylcyclobutyl)methanone] was tested. Which IC50 did it give?
Answer: The IC50 was 2.2 nM.

Question: With `COc1nc(OC2CCC3(CC2)CN(C(=O)[C@H]2C[C@@](C)(O)C2)C3)ccc1C1CC1` [Example 455, (7-((5-Cyclopropyl-6-methoxypyridin-2-yl)oxy)-2-azaspiro[3.5]nonan-2-yl)((1s,3s)-3-hydroxy-3-methylcyclobutyl)methanone] as the compound, how does the IC50 read?
Answer: The IC50 was 1.3 nM.

Question: Which IC50 does the source give for `COc1nc(OC2CCC3(CC2)CN(C(=O)[C@H]2C[C@@](C)(O)C2)C3)ccc1C` [Example 456, ((1s,3s)-3-Hydroxy-3-methylcyclobutyl)(7-((6-methoxy-5-methylpyridin-2-yl)oxy)-2-azaspiro[3.5]nonan-2-yl)methanone] here?
Answer: The IC50 was 19 nM.

Question: How did the IC50 turn out when `C[C@]1(O)C[C@@H](C(=O)N2CC3(CCC(Oc4ncc(C(F)(F)F)cc4F)CC3)C2)C1` [Example 457, (7-((3-Fluoro-5-(trifluoromethyl)pyridin-2-yl)oxy)-2-azaspiro[3.5]nonan-2-yl)((1s,3s)-3-hydroxy-3-methylcyclobutyl)methanone] was run?
Answer: The IC50 was 13 nM.

Question: Which IC50 does the source give for `COc1nc(OC2CCC3(CC2)CN(C(=O)[C@H]2C[C@@](C)(O)C2)C3)ccc1C(F)(F)F` [Example 458, ((1s,3s)-3-Hydroxy-3-methylcyclobutyl)(7-((6-methoxy-5-(trifluoromethyl)pyridin-2-yl)oxy)-2-azaspiro[3.5]nonan-2-yl)methanone] here?
Answer: The IC50 was 0.55 nM.

Question: For `CCOc1nc(OC2CCC3(CC2)CN(C(=O)[C@H]2C[C@@](C)(O)C2)C3)ccc1C(F)(F)F` [Example 459, (7-((6-Ethoxy-5-(trifluoromethyl)pyridin-2-yl)oxy)-2-azaspiro[3.5]nonan-2-yl)((1s,3s)-3-hydroxy-3-methylcyclobutyl)methanone], which IC50 is on record?
Answer: Its IC50 is 0.22 nM.

Question: How did the IC50 turn out when `COc1cc(OC2CCC3(CC2)CN(C(=O)[C@H]2C[C@@](C)(O)C2)C3)ncc1Cl` [Example 460, (7-((5-Chloro-4-methoxypyridin-2-yl)oxy)-2-azaspiro[3.5]nonan-2-yl)((1s,3s)-3-hydroxy-3-methylcyclobutyl)methanone] was run?
Answer: The IC50 was 142 nM.

Question: How did the IC50 turn out when `COc1nc(OC2CCC3(CC2)CN(C(=O)[C@H]2C[C@@](C)(O)C2)C3)ccc1Cl` [Example 461, (7-((5-Chloro-6-methoxypyridin-2-yl)oxy)-2-azaspiro[3.5]nonan-2-yl)((1s,3s)-3-hydroxy-3-methylcyclobutyl)methanone] was run?
Answer: The IC50 was 6.1 nM.

Question: Which IC50 does the source give for `COc1ccc(Cl)c(OC2CCC3(CC2)CN(C(=O)[C@H]2C[C@@](C)(O)C2)C3)n1` [Example 462, (7-((3-Chloro-6-methoxypyridin-2-yl)oxy)-2-azaspiro[3.5]nonan-2-yl)((1s,3s)-3-hydroxy-3-methylcyclobutyl)methanone] here?
Answer: The IC50 was 6.8 nM.

Question: How did the IC50 turn out when `COc1cc(Cl)cnc1OC1CCC2(CC1)CN(C(=O)[C@H]1C[C@@](C)(O)C1)C2` [Example 463, (7-((5-Chloro-3-methoxypyridin-2-yl)oxy)-2-azaspiro[3.5]nonan-2-yl)((1s,3s)-3-hydroxy-3-methylcyclobutyl)methanone] was run?
Answer: Its IC50 is 9.7 nM.

Question: `COc1ccnc(OC2CCC3(CC2)CN(C(=O)[C@H]2C[C@@](C)(O)C2)C3)c1Cl` [Example 464, (7-((3-Chloro-4-methoxypyridin-2-yl)oxy)-2-azaspiro[3.5]nonan-2-yl)((1s,3s)-3-hydroxy-3-methylcyclobutyl)methanone] was tested. Which IC50 did it give?
Answer: The IC50 was 81 nM.

Question: Which IC50 does the source give for `Cc1cc(OC2CCC3(CC2)CN(C(=O)[C@H]2C[C@@](C)(O)C2)C3)nc(C)c1C(F)(F)F` [Example 465, (7-((4,6-Dimethyl-5-(trifluoromethyl)pyridin-2-yl)oxy)-2-azaspiro[3.5]nonan-2-yl)((1s,3s)-3-hydroxy-3-methylcyclobutyl)methanone] here?
Answer: Its IC50 is 2.7 nM.

Question: How did the IC50 turn out when `Cc1cc(C(F)(F)F)c(C)nc1OC1CCC2(CC1)CN(C(=O)[C@H]1C[C@@](C)(O)C1)C2` [Example 466, (7-((3,6-Dimethyl-5-(trifluoromethyl)pyridin-2-yl)oxy)-2-azaspiro[3.5]nonan-2-yl)((1s,3s)-3-hydroxy-3-methylcyclobutyl)methanone] was run?
Answer: The IC50 was 0.1 nM.

Source: US11802111B2, “Cyclobutyl amide monoacylglycerol lipase modulators” (Janssen Pharmaceutica NV, priority 2020, dated 2023)
